Target: PIM1 (Homo sapiens (Human), UniProt P11309)
Assay: biochemical
Format: biochemical
Conditions: 20 pM PIM1, 1 μM FAM-peptide, 10 μM ATP, 90 minutes at room temperature; read-out: PIM1 LC3K (KI)
Method: Reaction Buffer contained 10 mM HEPES, pH 7.2, 10 mM MgCl2, 0.01% Tween 20, 2 mM DTT. Termination Buffer contained 190 mM HEPES, pH 7.2, 0.015% Brij-35, 0.2% Coating Reagent 3 (Caliper Life Sciences, Hopkinton, Mass.), 20 mM EDTA. Separation Buffer contained 100 mM HEPES, pH 7.2, 0.015% Brij-35, 0.1% Coating Reagent 3, 1:200 Coating Reagent 8 (Caliper Life Sciences, Hopkinton, Mass.), 10 mM EDTA and 5% DMSO.
PIM reactions were carried out in a final volume of 10 μL per well in a 384-well plate. […] After 90 minutes of incubation at room temperature, the phosphorylation reaction was stopped by the addition of 10 μL Termination Buffer. The product and substrate in each independent reaction were separated on a 12-sipper microfluidic chip (Caliper Life Sciences, Hopkinton, Mass.) run on a Caliper LC3000® (Caliper Life Sciences, Hopkinton, Mass.). The separation of product and substrate was optimized by choosing voltages and pressure using Caliper's Optimizer software (Hopkinton, Mass.). The separation conditions used a downstream voltage of −500V, an upstream voltage of −2150V, and a screening pressure of −1.2 psi. […] Substrate conversion was calculated from the electropherogram using HTS Well Analyzer software (Caliper Life Sciences, Hopkinton, Mass.). Ki values for the test compound were calculated.

Chain of PIM1 (P11309 whole entry): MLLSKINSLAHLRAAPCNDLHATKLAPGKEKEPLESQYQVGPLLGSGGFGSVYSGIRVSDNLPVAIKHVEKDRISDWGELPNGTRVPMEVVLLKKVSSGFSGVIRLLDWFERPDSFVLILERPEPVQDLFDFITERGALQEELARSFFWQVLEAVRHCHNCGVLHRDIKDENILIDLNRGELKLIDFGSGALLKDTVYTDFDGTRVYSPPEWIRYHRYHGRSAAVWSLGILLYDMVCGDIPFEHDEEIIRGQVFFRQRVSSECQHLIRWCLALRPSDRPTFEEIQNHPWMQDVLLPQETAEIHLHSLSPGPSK

Row | SMILES | Ki [nM]
1 | Cc1noc(C)c1-c1nc(C(=O)Nc2cnn(C)c2[C@@H]2CC[C@@H](N)[C@@H](F)CO2)cs1 [Example 244, N-(5-((2S,5R,6R)-5-amino-6-fluorooxepan-2-yl)-1-methyl-1H-pyrazol-4-yl)-2-(3,5-dimethylisoxazol-4-yl)thiazole-4-carboxamide] | 5.98
2 | Cn1ncc(NC(=O)c2csc(-c3ncccc3F)n2)c1[C@@H]1CC[C@@H](N)[C@H](F)CO1 [Example 237, N-(5-((2S,5R,6S)-5-amino-6-fluorooxepan-2-yl)-1-methyl-1H-pyrazol-4-yl)-2-(3-fluoropyridin-2-yl)thiazole-4-carboxamide] | 0.107
3 | Cn1ncc(NC(=O)c2csc(-c3c(F)cc(C4(O)CCOC4)cc3F)n2)c1[C@@H]1CC[C@@H](N)[C@H](F)CO1 (stereo partly drawn) [Example 215, N-(5-((2S,5R,6S)-5-amino-6-fluorooxepan-2-yl)-1-methyl-1H-pyrazol-4-yl)-2-(2,6-difluoro-4-(3-hydroxytetrahydrofuran-3-yl)phenyl)thiazole-4-carboxamide] | 0.00762
4 | C[C@H]1O[C@@H](c2c(NC(=O)c3nc(-c4c(F)cccc4F)sc3N)cnn2C)CC(F)(F)[C@@]1(C)N [Example 184, 5-Amino-N-(5-((2R,5S,6R)-5-amino-4,4-difluoro-5,6-dimethyltetrahydro-2H-pyran-2-yl)-1-methyl-1H-pyrazol-4-yl)-2-(2,6-difluorophenyl)thiazole-4-carboxamide] | 0.484
5 | Cn1ncc(NC(=O)c2csc(-c3c(F)cc(O[C@@H]4CCOC4)cc3F)n2)c1[C@@H]1CC[C@@H](N)[C@H](F)CO1 [Example 217] | 0.003
6 | Cn1ncc(NC(=O)c2nc(-c3c(F)cccc3F)sc2N)c1C1C[C@@H](N)[C@H](F)CCO1 (stereo partly drawn) [Example 127, 5-amino-N-(5-((4R,5R)-4-amino-5-fluorooxepan-2-yl)-1-methyl-1H-pyrazol-4-yl)-2-(2,6-difluorophenyl)thiazole-4-carboxamide] | 0.112
7 | Cn1ncc(NC(=O)c2ccc(F)c(-c3c(F)cc(Cl)cc3F)n2)c1[C@@H]1CC[C@@H](N)[C@H](F)CO1 [Example 375, N-(5-((2S,5R,6S)-5-amino-6-fluorooxepan-2-yl)-1-methyl-1H-pyrazol-4-yl)-6-(4-chloro-2,6-difluorophenyl)-5-fluoropicolinamide] | 0.036
8 | CO[C@H]1CO[C@H](c2c(NC(=O)c3nc(-c4c(F)cccc4C(F)(F)F)sc3N)cnn2C)CC[C@H]1N [Example 279, 5-amino-N-(5-((2S,5R,6R)-5-amino-6-methoxyoxepan-2-yl)-1-methyl-1H-pyrazol-4-yl)-2-(2-fluoro-6-(trifluoromethyl)phenyl)thiazole-4-carboxamide] | 0.083
9 | Cn1ncc(NC(=O)c2nc(-c3cccc(F)c3C(F)(F)F)sc2N)c1[C@@H]1CC[C@@H](N)[C@@H](F)CO1 [Example 267, 5-amino-N-(5-((2S,5R,6R)-5-amino-6-fluorooxepan-2-yl)-1-methyl-1H-pyrazol-4-yl)-2-(3-fluoro-2-(trifluoromethyl)phenyl)thiazole-4-carboxamide] | 0.098
10 | Cn1ncc(NC(=O)c2nc(-c3c(F)cccc3F)sc2N)c1C1C[C@@H](N)[C@H](F)CCO1 (stereo partly drawn) [Example 141, 5-amino-N-(5-((4R,5R)-4-amino-5-fluorooxepan-2-yl)-1-methyl-1H-pyrazol-4-yl)-2-(2,6-difluorophenyl)thiazole-4-carboxamide] | 0.07
11 | Cn1ncc(NC(=O)c2csc(-c3c(F)cc(C4(O)COC4)cc3F)n2)c1[C@@H]1CC[C@@H](N)[C@H](F)CO1 [Example 224, N-(5-((2S,5R,6S)-5-amino-6-fluorooxepan-2-yl)-1-methyl-1H-pyrazol-4-yl)-2-(2,6-difluoro-4-(3-hydroxyoxetan-3-yl)phenyl)thiazole-4-carboxamide] | 0.035
12 | CO[C@H]1CO[C@H](c2c(NC(=O)c3nc(-c4c(F)cccc4Cl)sc3N)cnn2C)CC[C@H]1N [Example 280, 5-amino-N-(5-((2S,5R,6R)-5-amino-6-methoxyoxepan-2-yl)-1-methyl-1H-pyrazol-4-yl)-2-(2-chloro-6-fluorophenyl)thiazole-4-carboxamide] | 0.014
13 | Cn1ncc(NC(=O)c2csc(-c3c(F)cccc3F)n2)c1[C@H]1CC[C@H](N)[C@@H](O)CO1 [Example 353, N-(5-((2R,5S,6R)-5-amino-6-hydroxyoxepan-2-yl)-1-methyl-1H-pyrazol-4-yl)-2-(2,6-difluorophenyl)thiazole-4-carboxamide] | 0.111
14 | Cn1ncc(NC(=O)c2ccc(F)c(-c3c(F)cc(C4(O)CCC4)cc3F)n2)c1[C@@H]1CC[C@@H](N)[C@@H](F)CO1 [Example 290, N-(5-((2S,5R,6R)-5-amino-6-fluorooxepan-2-yl)-1-methyl-1H-pyrazol-4-yl)-6-(2,6-difluoro-4-(1-hydroxycyclobutyl)phenyl)-5-fluoropicolinamide] | 0.0131
15 | Cn1ncc(NC(=O)c2csc(-c3cccc(Cl)c3F)n2)c1[C@@H]1CC[C@@H](N)[C@@H](F)CO1 [Example 248, N-(5-((2S,5R,6R)-5-amino-6-fluorooxepan-2-yl)-1-methyl-1H-pyrazol-4-yl)-2-(3-chloro-2-fluorophenyl)thiazole-4-carboxamide] | 0.064
16 | Cn1ncc(NC(=O)c2ccc(F)c(-c3c(F)cccc3F)n2)c1[C@@H]1CC[C@@H](N)[C@H](F)CO1 [Example 397, N-[5-[(2S,5R,6S)-5-amino-6-fluoro-oxepan-2-yl]-1-methyl-pyrazol-4-yl]-6-(2,6-difluorophenyl)-5-fluoro-pyridine-2-carboxamide] | 0.016

Next, values leading:

Row | Ki [nM] | SMILES
17 | > 667 | Cn1ncc(NC(=O)c2csc(-c3c(F)cccc3F)n2)c1[C@@H]1CC[C@@H](N)[C@@H](O)CO1 [Example 350, N-(5-((2S,5R,6R)-5-amino-6-hydroxyoxepan-2-yl)-1-methyl-1H-pyrazol-4-yl)-2-(2,6-difluorophenyl)thiazole-4-carboxamide]
18 | 0.011 | Cn1ncc(NC(=O)c2ccc(F)c(-c3c(F)cc(C(C)(C)O)cc3F)n2)c1[C@@H]1CC[C@@H](N)[C@H](F)CO1 [Example 200, N-(5-((2S,5R,6S)-5-amino-6-fluorooxepan-2-yl)-1-methyl-1H-pyrazol-4-yl)-6-(2,6-difluoro-4-(2-hydroxypropan-2-yl)phenyl)-5-fluoropicolinamide]
19 | 0.015 | Cn1ncc(NC(=O)c2nc(-c3c(F)cccc3F)sc2N)c1C1CCC(N)C(F)CO1 (stereo not drawn) [Example 124, 5-amino-N-[5-(5-amino-6-fluoro-oxepan-2-yl)-1-methyl-pyrazol-4-yl]-2-(2,6-difluorophenyl)thiazole-4-carboxamide]
20 | 0.054 | Cn1ncc(NC(=O)c2csc(-c3cccc(Cl)c3F)n2)c1[C@@H]1CC[C@@H](N)[C@H](F)CO1 [Example 308, N-(5-((2S,5R,6S)-5-amino-6-fluorooxepan-2-yl)-1-methyl-1H-pyrazol-4-yl)-2-(3-chloro-2-fluorophenyl)thiazole-4-carboxamide]
21 | 0.447 | Cn1ncc(NC(=O)c2csc(-c3cccc(OCc4ccccc4)c3)n2)c1[C@@H]1CC[C@@H](N)[C@H](F)CO1 [Example 401, N-[5-[(2S,5R,6S)-5-amino-6-fluoro-oxepan-2-yl]-1-methyl-pyrazol-4-yl]-2-(3-benzyloxyphenyl)thiazole-4-carboxamide]
22 | 0.119 | COC1(c2cc(F)c(-c3nc(C(=O)Nc4cnn(C)c4[C@@H]4CC[C@@H](N)[C@@H](F)CO4)ccc3F)c(F)c2)COC1 [Example 203, N-(5-((2S,5R,6R)-5-amino-6-fluorooxepan-2-yl)-1-methyl-1H-pyrazol-4-yl)-6-(2,6-difluoro-4-(3-methoxyoxetan-3-yl)phenyl)-5-fluoropicolinamide]
23 | 3.59 | Cc1cccc(F)c1-c1nc(C(=O)Nc2cnn(C)c2[C@@H]2CC[C@@H](N)[C@H](F)CO2)c(C)s1 [Example 369, N-[5-[(2S,5R,6S)-5-amino-6-fluoro-oxepan-2-yl]-1-methyl-pyrazol-4-yl]-2-(2-fluoro-6-methyl-phenyl)-5-methyl-thiazole-4-carboxamide]
24 | 0.124 | Cn1ncc(NC(=O)c2csc(-c3cnn(CC(C)(C)O)c3)n2)c1[C@@H]1CC[C@@H](N)[C@H](F)CO1 [Example 228, N-(5-((2S,5R,6S)-5-amino-6-fluorooxepan-2-yl)-1-methyl-1H-pyrazol-4-yl)-2-(1-(2-hydroxy-2-methylpropyl)-1H-pyrazol-4-yl)thiazole-4-carboxamide]
25 | 0.107 | Cn1ncc(NC(=O)c2nc(-c3cccc(C(F)(F)F)c3F)sc2N)c1[C@@H]1CC[C@@H](N)[C@H](F)CO1 [Example 156, 5-amino-N-(5-((2S,5R,6S)-5-amino-6-fluorooxepan-2-yl)-1-methyl-1H-pyrazol-4-yl)-2-(2-fluoro-3-(trifluoromethyl)phenyl)thiazole-4-carboxamide]
26 | 0.031 | Cn1ncc(NC(=O)c2nc(-c3c(F)cccc3F)sc2N)c1[C@H]1CC[C@H](N)C(F)(F)CO1 [Example 152]
27 | 0.022 | Cn1ncc(NC(=O)c2ccc(F)c(-c3c(F)cc(C4(F)COC4)cc3F)n2)c1[C@@H]1CC[C@@H](N)[C@H](F)CO1 [Example 194, N-(5-((2S,5R,6S)-5-amino-6-fluorooxepan-2-yl)-1-methyl-1H-pyrazol-4-yl)-6-(2,6-difluoro-4-(3-fluorooxetan-3-yl)phenyl)-5-fluoropicolinamide]
28 | 0.727 | CN(C)C(=O)c1ccc(F)c(-c2nc(C(=O)Nc3cnn(C)c3[C@@H]3CC[C@@H](N)[C@H](F)CO3)cs2)c1F [Example 376, N-[5-[(2S,5R,6S)-5-amino-6-fluoro-oxepan-2-yl]-1-methyl-pyrazol-4-yl]-2-[3-(dimethylcarbamoyl)-2,6-difluoro-phenyl]thiazole-4-carboxamide]
29 | 0.035 | COc1cc(F)c(-c2nc(C(=O)Nc3cnn(C)c3[C@@H]3CC[C@@H](N)[C@@H](F)CO3)cs2)c(F)c1 [Example 288, N-(5-((2S,5R,6R)-5-amino-6-fluorooxepan-2-yl)-1-methyl-1H-pyrazol-4-yl)-2-(2,6-difluoro-4-methoxyphenyl)thiazole-4-carboxamide]
30 | 0.253 | Cn1cc(-c2nc(C(=O)Nc3cnn(C)c3[C@@H]3CC[C@@H](N)[C@@H](F)CO3)cs2)c(C2CC2)n1 [Example 253, N-(5-((2S,5R,6R)-5-amino-6-fluorooxepan-2-yl)-1-methyl-1H-pyrazol-4-yl)-2-(3-cyclopropyl-1-methyl-1H-pyrazol-4-yl)thiazole-4-carboxamide]

Source: US9328106B2, “Cyclic ether pyrazol-4-yl-heterocyclyl-carboxamide compounds and methods of use” (Genentech, Inc., priority 2012, dated 2016)
